10 molecules from patent US20240252488A1 (KOREA RESEARCH INSTITUTE OF CHEMICAL TECHNOLOGY, priority 2020, published 2024) can be followed below.

By Kd is commonly meant the equilibrium constant for the complex coming apart. A higher Kd goes with lower affinity.

Assay [1] concerns the target T1, MLKL (Homo sapiens, UniProt Q8NB16).
T1 sequence (Q8NB16 1-471): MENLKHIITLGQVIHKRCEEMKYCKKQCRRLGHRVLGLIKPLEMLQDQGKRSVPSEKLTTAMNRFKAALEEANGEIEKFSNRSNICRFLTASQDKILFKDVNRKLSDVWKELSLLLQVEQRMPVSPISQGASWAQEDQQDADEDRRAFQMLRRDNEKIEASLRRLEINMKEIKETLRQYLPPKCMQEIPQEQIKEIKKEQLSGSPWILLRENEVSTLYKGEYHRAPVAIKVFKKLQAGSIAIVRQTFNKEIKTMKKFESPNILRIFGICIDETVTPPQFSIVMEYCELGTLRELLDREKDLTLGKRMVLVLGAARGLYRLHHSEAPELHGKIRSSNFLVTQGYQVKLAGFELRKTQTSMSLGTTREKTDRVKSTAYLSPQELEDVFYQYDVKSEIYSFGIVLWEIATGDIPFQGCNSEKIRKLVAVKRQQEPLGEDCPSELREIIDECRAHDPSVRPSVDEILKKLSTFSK
Put plainly: Measurement of binding affinity with MLKL receptor (competitive binding assay, Kd). Further details: made in house; host or cells: HEK 293 cell line (T7 phage in E. coli BL21-derived host is also described). In a few lines:
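Kd comes from a bead-based competition format: compound-dependent loss of DNA-tagged, HEK 293-expressed MLKL capture, measured as eluate kinase by qPCR. Final DMSO is 0.9%.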

A further assay deals with FADD−/− Jurkat cells. The assay is described as follows: Necroptosis inhibition assay, TNF-α-induced necroptosis (CellTiter-Glo 2.0). To be noted: TNF-α 15 ng/mL; for Necroptosis inhibition assay (Rescue %) 1 μM: compound 1 μM; for Necroptosis inhibition assay (Rescue %) 10 μM: compound 10 μM. It counts as cell-based, human. In short, it runs like this: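 Cmpd 0.1/1/10 μM final, 30 min RT preincubation; TNF-α 15 ng/mL final; 20–24 h, 37° C, 5% CO2. Readout: ATP luminescence (reagent 1:3 in PBS), 0.5 s/well. Cytotoxicity and % necroptosis inhibition calculated from signal.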
On the technique in general: ATP-based viability assays read luminescence as a measure of living cells.

The target in assay [2] is T1, MLKL. Put plainly: MLKL degradation assay in HepG2 cell line (western blot). The arrangement: endogenous in cells; host or cells: HepG2 or HaCaT. It counts as cell-based. To be noted: cell line not given; for Degradation assay (Degradation %) 1 μM: compound 1 μM; for Degradation assay (Degradation %) 10 μM: compound 10 μM. In short, it runs like this: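 HepG2, cpd final 1 or 10 μM, 20-24 h, 37 °C/5% CO2; RIPA lysis, BCA-normalized, 10-15 μg/lane SDS-PAGE, western blot, ECL read-out.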
Background: Immunoblotting shows a protein as a band on a membrane.

As to `Nc1ncc(-c2cnn(C3CCN(CC4CCN(CC(=O)N5CCC(Nc6cccc7c6C(=O)N(C6CCC(=O)NC6=O)C7=O)CC5)CC4)CC3)c2)nc1C(=O)OC(C(=O)Nc1ccc(F)cc1)c1ccccc1` (centres unmarked) [TDH-238, 2-((4-fluorophenyl)amino)-2-oxo-1-phenylethyl 3-amino-6-(1-(1-((1-(2-(4-((2-(2,6-dioxopiperidin-3-yl)-1,3-dioxoisoindolin-4-yl)amino)piperidin-1-yl)-2-oxoethyl)piperidin-4-yl)methyl)piperidin-4-yl)-1H-pyrazol-4-yl)pyrazine-2-carboxylate], the Kd at MLKL [1] came to 1.7 nM. Moreover, in the assay on FADD−/− Jurkat cells, the “Necroptosis inhibition assay (Rescue %) 1 μM” value is recorded as 43.63% and the “Necroptosis inhibition assay (Rescue %) 10 μM” value worked out at 31.99%. Further, on MLKL [2], the “Degradation assay (Degradation %) 1 μM” value is 30.48% and the “Degradation assay (Degradation %) 10 μM” value came to 18.31%.

At MLKL [1], `Nc1ncc(-c2cnn(C3CN(CC4CCN(C(=O)CNc5cccc6c5C(=O)N(C5CCC(=O)NC5=O)C6=O)CC4)C3)c2)nc1C(=O)OC(C(=O)Nc1ccc(F)cc1)c1ccccc1` (centres unmarked) [TDH-296, 2-((4-fluorophenyl)amino)-2-oxo-1-phenylethyl 3-amino-6-(1-(1-((1-((2-(2,6-dioxopiperidin-3-yl)-1,3-dioxoisoindolin-4-yl)glycyl)piperidin-4-yl)methyl)azetidin-3-yl)-1H-pyrazol-4-yl)pyrazine-2-carboxylate] came in with a Kd of 22 nM. Moreover, in the assay on FADD−/− Jurkat cells, the “Necroptosis inhibition assay (Rescue %) 1 μM” value stood at 25.58% and the “Necroptosis inhibition assay (Rescue %) 10 μM” value was found to be 26.91%. Moreover, at MLKL [2], the “Degradation assay (Degradation %) 1 μM” value is reported as 75.78% and the “Degradation assay (Degradation %) 10 μM” value is 62.01%.

Molecule `Nc1ncc(-c2cnn(C3CCN(CCOCCOCCNC(=O)C4CCN(c5cccc6c5C(=O)N(C5CCC(=O)NC5=O)C6=O)CC4)CC3)c2)nc1C(=O)N[C@@H](C(=O)Nc1ccc(F)cc1)c1ccccc1` (stereo partly drawn) [TDH-213, 3-amino-6-(1-(1-(2-(2-(2-(1-(2-(2,6-dioxopiperidin-3-yl)-1,3-dioxoisoindolin-4-yl)piperidine-4-carboxamido)ethoxy)ethoxy)ethyl)piperidin-4-yl)-1H-pyrazol-4-yl)-N-((R)-2-((4-fluorophenyl)amino)-2-oxo-1-phenylethyl)pyrazine-2-carboxamide] gave a Kd on MLKL [1] of 330 nM. Also, in the assay with FADD−/− Jurkat cells, the “Necroptosis inhibition assay (Rescue %) 1 μM” value is 18.34% and the “Necroptosis inhibition assay (Rescue %) 10 μM” value was determined as 44.98%. Besides, on MLKL [2], the “Degradation assay (Degradation %) 1 μM” value was 4.45% and the “Degradation assay (Degradation %) 10 μM” value worked out at 8.28%.

`Nc1ncc(-c2cnn(C3CCN(C(=O)CCC4CCN(C(=O)CC5CCN(c6ccc7c(c6)C(=O)N(C6CCC(=O)NC6=O)C7=O)CC5)CC4)CC3)c2)nc1C(=O)O[C@@H](C(=O)Nc1ccc(F)cc1)c1ccccc1` (stereo partly drawn) [TDH-430, (R)-2-((4-fluorophenyl)amino)-2-oxo-1-phenylethyl 3-amino-6-(1-(1-(3-(1-(2-(1-(2-(2,6-dioxopiperidin-3-yl)-1,3-dioxoisoindolin-5-yl)piperidin-4-yl)acetyl)piperidin-4-yl)propanoyl)piperidin-4-yl)-1H-pyrazol-4-yl)pyrazine-2-carboxylate] registered a Kd at MLKL [1] of 2.2 nM. Also, in the assay on FADD−/− Jurkat cells (FADD−/− Jurkat cells), the “Necroptosis inhibition assay (Rescue %) 1 μM” value was 15.88% and the “Necroptosis inhibition assay (Rescue %) 10 μM” value is 14.13%. At MLKL [2], the “Degradation assay (Degradation %) 1 μM” value stood at 65.96% and the “Degradation assay (Degradation %) 10 μM” value is reported as 36.66%.

`Nc1ncc(-c2cnn(C3CCN(CCOCCNC(=O)C4CN(c5cccc6c5C(=O)N(C5CCC(=O)NC5=O)C6=O)C4)CC3)c2)nc1C(=O)O[C@@H](C(=O)Nc1ccc(F)cc1)c1ccccc1` (stereo partly drawn) [TDH-126, (R)-2-((4-fluorophenyl)amino)-2-oxo-1-phenylethyl 3-amino-6-(1-(1-(2-(2-(1-(2-(2,6-dioxopiperidin-3-yl)-1,3-dioxoisoindolin-4-yl)azetidine-3-carboxamido)ethoxy)ethyl)piperidin-4-yl)-1H-pyrazol-4-yl)pyrazine-2-carboxylate] returned a dissociation constant Kd on MLKL [1] of 9.2 nM. Moreover, in the assay on FADD−/− Jurkat cells, the “Necroptosis inhibition assay (Rescue %) 1 μM” value was 19.35% and the “Necroptosis inhibition assay (Rescue %) 10 μM” value is 58.35%. Also, at MLKL [2], the “Degradation assay (Degradation %) 1 μM” value turned out to be 31.29% and the “Degradation assay (Degradation %) 10 μM” value is 81.59%.

For `Nc1ncc(-c2cnn(C3CCN(C(=O)COCCOCCNc4cccc5c4C(=O)N(C4CCC(=O)NC4=O)C5=O)CC3)c2)nc1C(=O)O[C@@H](C(=O)Nc1ccc(F)cc1)c1ccccc1` (stereo partly drawn) [TDH-104, (R)-2-((4-fluorophenyl)amino)-2-oxo-1-phenylethyl 3-amino-6-(1-(1-(2-(2-(2-((2-(2,6-dioxopiperidin-3-yl)-1,3-dioxoisoindolin-4-yl)amino)ethoxy)ethoxy)acetyl)piperidin-4-yl)-1H-pyrazol-4-yl)pyrazine-2-carboxylate], on MLKL [1], the dissociation constant (Kd) worked out at 48 nM. In the assay with FADD−/− Jurkat cells, the “Necroptosis inhibition assay (Rescue %) 1 μM” value stood at 25.6% and the “Necroptosis inhibition assay (Rescue %) 10 μM” value came out at 22.88%. Besides, at MLKL [2], the “Degradation assay (Degradation %) 1 μM” value is given as 14.79% and the “Degradation assay (Degradation %) 10 μM” value turned out to be 62.43%.

In the case of `Nc1ncc(-c2cnn(C3CCN(CC4CCN(C(=O)C5CCN(c6cccc7c6C(=O)N(C6CCC(=O)NC6=O)C7=O)CC5)CC4)CC3)c2)nc1C(=O)O[C@@H](C(=O)Nc1ccc(F)cc1)c1ccccc1` (stereo partly drawn) [TDH-146, (R)-2-((4-fluorophenyl)amino)-2-oxo-1-phenylethyl 3-amino-6-(1-(1-((1-(1-(2-(2,6-dioxopiperidin-3-yl)-1,3-dioxoisoindolin-4-yl)piperidine-4-carbonyl)piperidin-4-yl)methyl)piperidin-4-yl)-1H-pyrazol-4-yl)pyrazine-2-carboxylate], the Kd at MLKL [1] is 5.4 nM. Further, in the assay with FADD−/− Jurkat cells, the “Necroptosis inhibition assay (Rescue %) 1 μM” value is reported as 42.2% and the “Necroptosis inhibition assay (Rescue %) 10 μM” value stood at 9.61%. Besides, at MLKL [2], the “Degradation assay (Degradation %) 1 μM” value is reported as 65.04% and the “Degradation assay (Degradation %) 10 μM” value amounted to 60.65%.

At MLKL [1], `Nc1ncc(-c2cnn(C3CCN(CCC4CCN(C(=O)CC5CCN(c6ccc7c(c6)C(=O)N(C6CCC(=O)NC6=O)C7=O)CC5)CC4)CC3)c2)nc1C(=O)O[C@@H](C(=O)Nc1ccc(F)cc1)c1ccccc1` (stereo partly drawn) [TDH-367, (R)-2-((4-fluorophenyl)amino)-2-oxo-1-phenylethyl 3-amino-6-(1-(1-(2-(1-(2-(1-(2-(2,6-dioxopiperidin-3-yl)-1,3-dioxoisoindolin-5-yl)piperidin-4-yl)acetyl)piperidin-4-yl)ethyl)piperidin-4-yl)-1H-pyrazol-4-yl)pyrazine-2-carboxylate] yielded a Kd of 0.82 nM. Besides, in the assay with FADD−/− Jurkat cells, the “Necroptosis inhibition assay (Rescue %) 1 μM” value came to 36.86% and the “Necroptosis inhibition assay (Rescue %) 10 μM” value turned out to be 21.34%. In addition, at MLKL [2], the “Degradation assay (Degradation %) 1 μM” value is reported as 84.28% and the “Degradation assay (Degradation %) 10 μM” value was determined as 80.64%.

In turn, `Nc1ncc(-c2cnn(C3CCN(CCOCCNC(=O)C4CCN(c5ccc6c(c5)C(=O)N(C5CCC(=O)NC5=O)C6=O)CC4)CC3)c2)nc1C(=O)O[C@@H](C(=O)Nc1ccc(F)cc1)c1ccccc1` (stereo partly drawn) [TDH-129, (R)-2-((4-fluorophenyl)amino)-2-oxo-1-phenylethyl 3-amino-6-(1-(1-(2-(2-(1-(2-(2,6-dioxopiperidin-3-yl)-1,3-dioxoisoindolin-5-yl)piperidine-4-carboxamido)ethoxy)ethyl)piperidin-4-yl)-1H-pyrazol-4-yl)pyrazine-2-carboxylate] yielded a Kd on MLKL [1] of 7.1 nM. In the assay on FADD−/− Jurkat cells, the “Necroptosis inhibition assay (Rescue %) 1 μM” value is on record as 49.22% and the “Necroptosis inhibition assay (Rescue %) 10 μM” value worked out at 67.79%. For the same molecule, on MLKL [2], the “Degradation assay (Degradation %) 1 μM” value was 32.68% and the “Degradation assay (Degradation %) 10 μM” value was found to be 57.68%.

At MLKL [1], `Nc1ncc(-c2cnn([C@@H]3CCN(CC4CCN(C(=O)COc5ccc6c(c5)C(=O)N(C5CCC(=O)NC5=O)C6=O)CC4)C3)c2)nc1C(=O)OC(C(=O)Nc1ccc(F)cc1)c1ccccc1` (stereo partly drawn) [TDH-288, 2-((4-fluorophenyl)amino)-2-oxo-1-phenylethyl 3-amino-6-(1-((3R)-1-((1-(2-((2-(2,6-dioxopiperidin-3-yl)-1,3-dioxoisoindolin-5-yl)oxy)acetyl)piperidin-4-yl)methyl)pyrrolidin-3-yl)-1H-pyrazol-4-yl)pyrazine-2-carboxylate] registered a Kd of 5.2 nM. Moreover, in the assay on FADD−/− Jurkat cells, the “Necroptosis inhibition assay (Rescue %) 1 μM” value is listed as 70.93% and the “Necroptosis inhibition assay (Rescue %) 10 μM” value was determined as 66.54%. For the same molecule, on MLKL [2], the “Degradation assay (Degradation %) 1 μM” value was 75.31% and the “Degradation assay (Degradation %) 10 μM” value turned out to be 89.16%.
